# Reference: US8759364B2, “Methods of treating bone mass diseases” (The Trustees of Columbia University in the City of New York, priority 2008, dated 2014)
# Assays:
# peripheral serotonin = assay: Effect of oral CBMIDA on peripheral serotonin production in mice (serum serotonin ELISA), Example 1; type: in vivo
# Method: (§1) The ability of selective TPH1 inhibitor CBMIDA to reduce peripheral serotonin measured in serum was tested. Either 250 or 500 mg/kg doses of CBMIDA were administered orally twice in 20 hours to 4 week old mice, 4-5 mice per group. As a control, some mice were untreated and some received 250 mg/kg pCPA orally. […] CBMIDA has been reported to be an EDTA analog that increases osteoid volume in beagle dogs and induces proliferation of rat calvarial-derived osteoblasts in vitro (Xie, et al., Bioorganic & Medicinal Chemistry Letters 15 (2005) 3267-3270, incorporated herein by reference in its entirety).
# One month old C57Bl/6 inbred male mice, weighing 15-16 g were used in the experiments. Animals were housed under 12 h light/12 h dark conditions in a room with controlled temperature (22° C.) and humidity (60%). Mice had ad libitum access to food and water, and were used after a minimum of 4 days of acclimatization to the housing conditions. All experiments were conducted following Columbia University Guidelines for the Animal Use and Care of laboratory mice.
# (§2) Before the experiments, animals were separated into individual cages one day prior to the experiment. Compounds were fed orally (gavage) to the mouse, calculated according to the weight of the mouse, twice a day at 1700 h and at 1100 h. […] This route created two potential barriers for the compound to reach the brain. […] Control animals received the same volume of vehicle. Blood was collected through heart puncture on isofluorane-anaesthesized animals and allowed to clot for 5 minutes on ice. The serum was separated, snap chilled in liquid nitrogen and frozen at −80° C. till analyzed. Brainstems from all the animals were collected and processed for brain serotonin measurement through HPLC.
# (§3) The Serotonin ELISA kit obtained from the Fitzgerald company was used to measure derivatized serotonin from serum. Derivatization is part of the sample preparation. Serotonin present in the serum was first quantitatively acylated into N-Acylserotonin using the acylation reagent. The principle of the assay is based on competitive ELISA, wherein serotonin that is bound to the solid phase of the plate and the N-acylserotonin compete for the fixed number of antiserum binding sites. When the reaction is in equilibrium, free antigen and free antigen-antiserum complexes are removed by washing.
# The antibody bound to the solid phase serotonin is then detected using antirabbit/peroxidase. The substrate TMB/Peroxidase reaction is read at 450 nm. The amount of antibody bound to the solid phase serotonin is inversely proportional to the concentration of serotonin in the sample.
# Catechol-3,6-bis methyleneiminodiacetic acid (CBMIDA) (basic structure is an EDTA-like compound and the catechol ring is at the centre) synthesized at the Columbia University Chemistry division, and para-chlorophenylalanine (pCPA) obtained from Sigma Aldrich Corp. were used. Each compound was dissolved with twice molar solution of NaHCO3 in water and given to mouse orally at 250 and 500 mg/kg/dose.
# serotonin in the brain = assay: Brain serotonin and blood brain barrier crossing after oral feeding; type: in vivo, mice
# Method: as §1, §2
# [1] = system: peripheral serotonin production; assay: Pilot study of tryptophan hydroxylase inhibitors on peripheral serotonin production in ovariectomized mice, Example 12; type: in vivo; conditions: pCPA used as control; FIG. 15
# Method: 6-week old C57Bl/6 inbred female mice, weighing 12-14 g, were used in the experiments. Animals were housed under 12 h light/12 h dark conditions in a room with controlled temperature (22° C.) and humidity (60%). Mice had ad libitum access to food and water, and were used after a minimum of 4 days of acclimatization to the housing conditions. All experiments were conducted following Columbia University Guidelines for the Animal Use and Care of laboratory mice.
# Animals were separated into different groups one day prior to the experiments. Mice were ovariectomized (OVX) under anaesthesia (Avertin). Compounds were fed orally (Gavage) twice a day at 1700 h and at 1100 h for the pilot study while for the long term study compounds were given at 1700 h once a day. […] This route creates two potential barriers for the compound to reach the brain. […] Control animals received the same volume of vehicle. Blood was collected through heart puncture on isofluorane-anaesthesized animals, allowed to clot for 5 minutes on ice and then serum was separated, snap chilled in liquid nitrogen and frozen at −80° C. till analyzed. Mice were observed daily for any physical or behavioral abnormality during the course of investigation.
# • Group 1: Vehicle • Group 2: Compound 1 • Group 3: Compound 2 • Group 4: Compound 3 • Group 5: Compound 4 (LP-533401) Experiment II: Effect of Compounds 1 and 4 on Protection from OVX-Induced Bone Loss Protocol 1: Gavage Feeding of the Compounds Will be Started 1 Day after OVX for 6 Weeks • Group 1: Sham treatment • Group 2: OVX • Group 3: OVX+Compound 1 (250 mg/kg) • Group 4: OVX+Compound 1 (500 mg/kg) • Group 5: OVX+Compound 4 (250 mg/kg) Protocol 2: Gavage Feeding of the Compounds Will be Started 2 Weeks after OVX for 6 Weeks • Group 1: Sham treatment • Group 2: OVX • Group 3: OVX+Compound 1 (250 mg/kg) • Group 4: OVX+Compound 1 (500 mg/kg) • Group 5: OVX+Compound 4 (250 mg/kg) Protocol 3: Gavage Feeding of the Compounds Will be Started 4 Weeks after OVX for 6 Weeks • Group 1: Sham treatment • Group 2: OVX • Group 3: OVX+Compound 1 (250 mg/kg) • Group 4: OVX+Compound 1 (500 mg/kg) • […] Serotonin Measurement in Serum
# as §3, with “acylated” for “acylated into N-Acylserotonin”, “reagent into N-Acylserotonin.” for “reagent.”, “washing. The antibody bound to the solid phase serotonin is then detected by anti-rabbit/peroxidase. The substrate TMB/Peroxidase reaction is read at 450 nm. The amount of antibody bound to the solid phase serotonin is inversely proportional to the concentration of serotonin in the sample.” for “washing.”
# We used Catechol-3,6-bis methyleneiminodiacetic acid [(CBMIDA) Compound 1: basic structure is a EDTA-like compound and the catechol ring is at the center)] synthesized at the Columbia University Chemistry division and para-Chlorophenylalanine (pCPA) obtained from Sigma Aldrich Corp. for our experiments. Compounds were dissolved with twice molar solution of NaHCO3 in water and given to mice orally at 250 and 500 mg/kg/dose. Compounds 2 and 3 were dissolved in water.
structure (smiles),measurement,setting,value
"NC(Cc1ccc(Cl)cc1)C(=O)O (centres unmarked) [pCPA, para-chlorophenylalanine]",reduction of peripheral serotonin measured in serum,"peripheral serotonin; 250 mg/kg orally twice in 20 hours, 4 week old mice",~50%
same,serum serotonin levels decreased to % below normal range,"peripheral serotonin; pCPA used as control, oral, FIG. 11",> 60%
same,serotonin in the brain,serotonin in the brain; 250 mg/kg orally,did not decrease
same,crossing of the blood brain barrier,serotonin in the brain; at the amounts used (250 mg/kg),did not cross
same,serotonin levels decreased to % below normal range,[1],60%
